These results are taken from patent US9663528B2, “Substituted 1,2,3,4,6,8,12,12a-octahydro-1,4-methanodipyrido[1,2-a:1',2'-d]pyrazines and methods for treating viral infections” (priority 2012, dated 2017).

The test system of data set [1] is MT4 cells. The data set is described as follows: in vitro.
The subject of data set [2] is HIV-IIIb. The data set is described as follows: Antiviral assay in MT4 cells. Format: cell-based. As to conditions: MT4 cells infected with HIV-IIIb, 5 days incubation; read-out: EC50 nM in MT-4. On the procedure: For the antiviral assay utilizing MT4 cells, 0.4 μL of […] test concentration of 3-fold serially diluted compound in DMSO was added to 40 μL of cell growth medium (RPMI 1640, 10% FBS, 1% penicilline/Streptomycine, 1% L-Glutamine, 1% HEPES) in each well of 384-well assay plates (10 concentrations) in quidruplicate.
1 mL aliquots of 2×10^6 MT4 cells are pre-infected for 1 and 3 hours respectively at 37° C. with 25 μL (MT4) or of either cell growth medium (mock-infected) or a fresh 1:250 dilution of an HIV-IIIb concentrated ABI stock (0.004 m.o.i. for MT4 cells). Infected and uninfected cells are diluted in cell growth medium and 35 μL of 2000 (for MT4) cells is added to each well of the assay plates.
Assay plates were then incubated in a 37° C. incubator. After 5 days of incubation, 25 μL of 2× concentrated CellTiter-Glo™ Reagent (catalog #G7573, Promega Biosciences, Inc., Madison, Wis.) was added to each well of the assay plate. Cell lysis was carried out by incubating at room temperature for 2-3 minutes, and then chemiluminescence was read using the Envision reader (PerkinElmer).

Data set [3] in a line: Pharmacokinetic analysis following intravenous administration to beagle dogs. It counts as in vivo. Conditions: male, dog, beagle dogs, IV infusion over 30 min, 0.5 mg/kg. On the procedure:
(§1) Pharmacokinetic analysis was performed on various test compounds following intravenous or oral administration to beagle dogs.
(§2) For pharmacokinetic analysis of intravenously administered compounds, the test compounds were formulated in 5% Ethanol, 55% PEG 300, and 40% water at 0.1 mg/mL for IV infusion. For pharmacokinetic analysis of orally administered compounds, the test compounds were formulated as an aqueous suspension in 0.1% Tween 20, 0.5% HPMC LV 100 in Di Water at 1 mg/kg.
(§3) Each dosing group consisted of 3 male, non-naïve purebred beagle dogs. At dosing, the animals weighed between 10 to 13 kg. The animals were fasted overnight prior to dose administration and up to 4 hr after dosing. For studies of intravenous administration, the test article was administered to the animals by intravenous infusion over 30 min. The rate of infusion was adjusted according to the body weight of each animal to deliver a dose of 0.5 mg/kg. For studies of oral administration, the test article was administered according to the body weight of each animal to deliver a dose of 1 mg/kg.
For pharmacokinetic analysis of intravenously administered compounds, serial venous blood samples (approximately 1 mL each) were taken from each animal at 0, 0.250, 0.483, 0.583, 0.750, 1.00, 1.50, 2.00, 4.00, 8.00, 12.0, and 24.0 hours after dosing. The blood samples were collected into Vacutainer™ tubes containing EDTA-K2 as the anti-coagulant and were immediately placed on wet ice pending centrifugation for plasma. An LC/MS/MS method was used to measure the concentration of the test compound in plasma. An aliquot of 100 μL of each plasma sample was added to a clean 96 well plate, and 400 μL of cold acetonitrile/internal standard solution (ACN)/(ISTD) was added. After protein precipitation, an aliquot of 110 μL of the supernatant was transferred to a clean 96-well plate and diluted with 300 μL of water. An aliquot of 25 μL of the above solution was injected into a TSQ Quantum Ultra LC/MS/MS system utilizing a Hypersil Gold C18 HPLC column (50×3.0 mm, 5 μm; Thermo-Hypersil Part #25105-053030). An Agilent 1200 series binary pump (P/N G1312A Bin Pump) was used for elution and separation, and an HTS Pal autosampler (LEAP Technologies, Carrboro, N.C.) was used for sample injection. A TSQ Quantum Ultra triple quadrupole mass spectrometer was utilized in selective reaction monitoring mode (Thermo Finnigan, San Jose, Calif.). Liquid chromatography was performed using two mobile phases: mobile phase A contained 1% acetonitrile in 2.5 mM ammonium formate aqueous solution with pH of 3.0, and mobile phase B contained 90% acetonitrile in 10 mM ammonium formate with pH of 4.6. Non-compartmental pharmacokinetic analysis was performed on the plasma concentration-time data. The resulting data are shown in the first three columns of Table 4. In Table 4, CL refers to clearance, which characterizes the rate at which drug is removed from plasma. The lower the clearance of a drug is, the longer the elimination half-life is in the body. Vss refers to the steady state volume of distribution and indicates how well a drug is distributed into the tissues. The larger the Vss is, the longer the elimination half-life is in the body. MRT refers to mean residence time, which is a measure of the average time molecules exist in the body.

For data set [4], the target named is OCT2 (Homo sapiens (Human), UniProt O15244). The data set is described as follows: OCT2 inhibition assay (14C-TEA uptake, OCT2-transfected MDCKII cells). It counts as cell-based. Conditions: OCT2 mediated uptake of 14C-TEA (20 μM), MDCKII cells; read-out: IC50.
Data set [5] concerns the target PXR (Homo sapiens (Human), UniProt O75469). Briefly: Human PXR activation assay (luciferase reporter gene assay, DPX2 cells). It counts as cell-based. Conditions: 15 μM, relative to maximum fold induction by 10 or 20 μM rifampicin, DPX2 cells, 24 hours. On the procedure:
A stably transformed tumor cell line (DPX2) was plated on 96-well microtiter plates. DPX2 cells harbor the human PXR gene (NR112) and a luciferase reporter gene linked to two promoters identified in the human CYP3A4 gene, namely XREM and PXRE. […] The number of viable cells was determined and the reporter gene activity was assessed. Positive control: […]
In general terms: A reporter such as luciferase makes a cellular process visible.

Data set [6] can be described thus: in vitro. Conditions: human, CC50 nM in MT-4.
The nature of data set [7]: Pharmacokinetic analysis following oral administration to beagle dogs. Format: in vivo. As to conditions: beagle dogs, oral, 1 mg/kg, aqueous suspension. On the procedure: as §1, §2, §3
For pharmacokinetic analysis of orally administered compounds, serial venous blood samples (approximately 0.3 mL each) were taken from each animal at time points of 0, 0.25, 0.50, 1.0, 2.0, 4.0, 6.0, 8.0, 12.0 and 24.0 hours after dosing. Blood samples were collected, prepared and analyzed in a similar way to the intravenous studies described above. Non-compartmental pharmacokinetic analysis was performed on the plasma concentration-time data. The resulting data are shown in the last three columns of Table 4. In Table 4, F (%) refers to oral bioavailability. Cmax refers to the peak plasma concentration of the compound after administration. AUC refers to area under the curve and is a measure of total plasma exposure of the indicated compound.

Where two headings read alike, the source gives them in different places.

For orientation: EC50 means the concentration that produces a half-maximal response. The MRT is a mean duration of stay, worked out from the concentration-time curve. For orientation: IC50 means the concentration that inhibits the measured activity by half. As a reminder, the Emax is the greatest response seen or fitted, relative to the assay's reference. One may read the AUC as the area under the concentration-time curve, a measure of exposure. As usually defined, the Cmax is the maximum level reached in the sampled fluid or tissue.

PXR, sequence (O75469 whole entry): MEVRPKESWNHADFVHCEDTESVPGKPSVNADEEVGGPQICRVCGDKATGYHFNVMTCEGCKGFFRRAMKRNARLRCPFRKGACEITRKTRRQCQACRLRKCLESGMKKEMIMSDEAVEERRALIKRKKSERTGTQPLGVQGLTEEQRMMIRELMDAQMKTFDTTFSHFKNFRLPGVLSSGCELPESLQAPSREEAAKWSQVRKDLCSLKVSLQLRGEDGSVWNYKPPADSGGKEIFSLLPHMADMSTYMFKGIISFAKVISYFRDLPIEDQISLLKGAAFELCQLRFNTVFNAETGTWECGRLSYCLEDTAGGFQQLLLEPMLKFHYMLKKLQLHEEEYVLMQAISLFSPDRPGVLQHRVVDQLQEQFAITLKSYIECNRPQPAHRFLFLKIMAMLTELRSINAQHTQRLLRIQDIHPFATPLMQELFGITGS
OCT2, sequence (O15244 whole entry): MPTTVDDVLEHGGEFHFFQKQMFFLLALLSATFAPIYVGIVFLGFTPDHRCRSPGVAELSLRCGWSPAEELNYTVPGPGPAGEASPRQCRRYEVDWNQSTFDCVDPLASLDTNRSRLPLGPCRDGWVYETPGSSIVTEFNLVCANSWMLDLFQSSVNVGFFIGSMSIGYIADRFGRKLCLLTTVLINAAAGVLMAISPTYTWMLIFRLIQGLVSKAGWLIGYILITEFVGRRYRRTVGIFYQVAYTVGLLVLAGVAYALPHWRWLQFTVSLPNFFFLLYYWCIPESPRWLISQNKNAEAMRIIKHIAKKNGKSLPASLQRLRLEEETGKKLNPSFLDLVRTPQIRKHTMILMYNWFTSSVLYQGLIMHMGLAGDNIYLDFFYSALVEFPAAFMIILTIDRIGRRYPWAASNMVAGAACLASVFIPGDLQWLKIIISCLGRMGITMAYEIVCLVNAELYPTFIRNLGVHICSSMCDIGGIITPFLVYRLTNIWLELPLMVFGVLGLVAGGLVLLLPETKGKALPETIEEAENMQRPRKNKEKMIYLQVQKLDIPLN

The compound `O=C(NC1(c2ccc(F)cc2F)CC1)c1cn2c(c(O)c1=O)C(=O)N1[C@@H]3CC[C@@H](C3)O[C@H]1C2` [Compound 30, (2S,5R,13aS)-N-(1-(2,4-difluorophenyl)cyclopropyl)-8-hydroxy-7,9-dioxo-2,3,4,5,7,9,13,13a-octahydro-2,5-methanopyrido[1′,2′:4,5]pyrazino[2,1-b][1,3]oxazepine-10-carboxamide] gave a CC50 in data set [1] (human, 5 days) of 6.83 µM. In addition, the concentration giving a half-maximal response (EC50) in data set [2] came to 4 nM.
In the case of `O=C(NCc1ccc(F)cc1F)c1cn2c(c(O)c1=O)C(=O)N1[C@H]3CC[C@H](C3)[C@@H]1C2` [Compound 47, (1R,4S,12aR)-N-(2,4-difluorobenzyl)-7-hydroxy-6,8-dioxo-1,2,3,4,6,8,12,12a-octahydro-1,4-methanodipyrido[1,2-a:1′,2′-d]pyrazine-9-carboxamide], in data set [3] (in vivo, read-out: Vss), the Vd was 0.1 L/kg. In addition, the clearance in data set [3] (plasma, read-out: CL (converted)) was 0.233 mL/min/kg. Besides, the MRT in data set [3] (plasma, read-out: MRT) is 7.4 h. In addition, the IC50 in data set [4] was 6.2 µM. For the same compound, in data set [5] (human, read-out: % Emax at 15 μM), the maximum response (Emax) at 24 h, 15 µM amounted to 11%. The compound further registered a CC50 at 5 days in data set [6] of 11300 nM. Also, in data set [7], the “F (%) aqueous suspension” value was determined as 12.6%. The AUC in data set [7] (male, dog, plasma, read-out: AUC (μM*h) aqueous suspension) was 20.4 µM·h. In data set [7] (male, dog, plasma, read-out: Cmax (μM) aqueous suspension), the Cmax was found to be 2.8 µM.
In data set [1], `O=C(NCc1c(F)cc(F)cc1F)c1cn2c(c(O)c1=O)C(=O)N1[C@H]3CC[C@H](CC3)[C@H]1C2` [Compound 101, (11R,4R,12aS)-7-hydroxy-6,8-dioxo-N-(2,4,6-trifluorobenzyl)-1,2,3,4,6,8,12,12a-octahydro-1,4-ethanodipyrido[1,2-a:1′,2′-d]pyrazine-9-carboxamide] yielded a CC50 of 11.6 µM. In addition, the EC50 in data set [2] worked out at 2.1 nM.
Turning to `O=C(NCc1c(F)cc(F)cc1F)c1cn2c(c(O)c1=O)C(=O)N1[C@H]3CC[C@H](CC3)[C@@H]1C2` [Compound 102, (1S,4S,12aR)-7-hydroxy-6,8-dioxo-N-(2,4,6-trifluorobenzyl)-1,2,3,4,6,8,12,12a-octahydro-1,4-ethanodipyrido[1,2-a:1′,2′-d]pyrazine-9-carboxamide], the “% Emax at 15 μM” value in data set [5] was 123%. The compound also came in with a CC50 in data set [1] of 12 µM. In addition, in data set [2], the concentration giving a half-maximal response (EC50) is 2.3 nM.
